For the assay, the target named is T1, human LMPTP-A (Homo sapiens, UniProt P24666).
T1 sequence (P24666 1-158): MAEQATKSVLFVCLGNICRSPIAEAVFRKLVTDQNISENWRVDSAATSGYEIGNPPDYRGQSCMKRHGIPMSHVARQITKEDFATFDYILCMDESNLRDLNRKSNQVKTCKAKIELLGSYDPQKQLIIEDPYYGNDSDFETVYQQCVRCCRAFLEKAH
Put plainly: Enzyme Assay of Inhibition of LMPTP-A. In kind it is biochemical. The conditions noted are these: phosphatase assay, OMFP or pNPP substrate, 50 mM Bis-Tris pH 6.0, 37° C. In outline: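 Recombinant human LMPTP-A in 50 mM Bis-Tris pH 6.0, 1 mM DTT, 0.01% Triton X-100 at 37° C. Substrate OMFP read continuously by fluorescence (485/525 nm), or pNPP stopped with NaOH and read at 405 nm. IC50 taken from inhibitor concentration versus % activity plots.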

By IC50 is commonly meant the point on the concentration scale where inhibition reaches its midpoint.

The compound `Cc1cccc(Cl)c1Cn1cnc(N)c2ncnc1-2` [3-(2-chloro-6-methylbenzyl)-3H-purin-6-amine] returned an IC50 of at most 1000 nM.
Compound `Nc1ncn(Cc2c(Cl)cncc2Cl)c2nc(-c3ccccc3)nc1-2` [3-[(3,5-Dichloro(4-pyridyl))methyl]-8-phenyl-3-hydropurine-6-ylamine] had an IC50 of at most 1000 nM.
The value for `Nc1ncn(Cc2c(Cl)cccc2Br)c2ncnc1-2` [3-(2-bromo-6-chlorobenzyl)-3H-purin-6-amine] was at most 1000 nM; that for `N#Cc1cccc(Cn2cnc(N)c3ncnc2-3)c1` [3-((6-amino-3H-purin-3-yl)methyl)benzonitrile] was 1000 to 20000 nM.
`Nc1ncn(Cc2cscn2)c2ncnc1-2` [3-Thiazol-4-ylmethyl-3H-purin-6-ylaniine] yielded a 50% inhibitory concentration (IC50) of at least 20000 nM.
The figure for `Nc1ncn(Cc2c(Cl)cccc2I)c2ncnc1-2` [3-(2-Chloro-6-iodo-benzyl)-3H-purin-6-ylamine] is at most 1000 nM.
The figure for `N#Cc1ccc(Cn2cnc(N)c3ncnc2-3)cc1` [4-((6-amino-3H-purin-3-yl)methyl)benzonitrile] is 1000 to 20000 nM.
With `N#Cc1ccccc1Cn1cnc(NCc2ccco2)c2ncnc1-2` [2-((6-((Furan-2-ylmethyl)amino)-3H-purin-3-yl)methyl)benzonitrile], the IC50 is at least 20000 nM.
Turning to `N#Cc1ccc(Cn2cnc(NCc3ccco3)c3ncnc2-3)cc1` [4-{6-[(Furan-2-ylmethyl)-amino]-purin-3-ylmethyl}-benzonitrile], the IC50 was at least 20000 nM.
Turning to `Fc1ccccc1CNc1ncn(Cc2c(Cl)cccc2Cl)c2ncnc1-2` [[3-(2,6-Dichloro-benzyl)-3H-purin-6-yl]-(2-fluoro-benzyl)-amine], the IC50 is 1000 to 20000 nM.
The figure for `Nc1ncn(Cc2cccnc2)c2ncnc1-2` [3-Pyridin-3-ylmethyl-3H-purin-6-ylamine] is 1000 to 20000 nM; for `CCCc1ccc(Nc2ncn(Cc3c(Cl)cccc3Cl)c3ncnc2-3)cc1` [{3-[(2,6-Dichlorophenyl)methyl](3-hydropurin-6-yl)}(4-propylphenyl)amine] it is 1000 to 20000 nM.
The value for `Clc1cccc(Cl)c1Cn1cnc(Nc2ccc(N3CCOCC3)cc2)c2ncnc1-2` [{3-[(2,6-Dichlorophenyl)methyl](3-hydropurin-6-yl)}(4-morpholin-4-ylphenyl)amine] was 1000 to 20000 nM; that for `CCC(=O)Nc1ncn(Cc2c(Cl)cccc2Cl)c2ncnc1-2` [N-[3-(2,6-Dichloro-benzyl)-3 H-purin-6-yl]-propionamide] was 1000 to 20000 nM; that for `COc1cccc(-c2nc3c(N)ncn(Cc4c(Cl)cccc4Cl)c-3n2)c1` [3-[(2,6-Dichlorophenyl)methyl]-8-(3-methoxyphenyl)-3-hydropurine-6-ylamine] was at most 1000 nM.
`Brc1ccccc1Cn1cnc(NCc2ccco2)c2ncnc1-2` [[3-(2-Bromo-benzyl)-3H-purin-6-yl]-furan-2-ylmethyl-amine] showed an IC50 of 1000 to 20000 nM.
The compound `COC(=O)c1ccc(Nc2ncn(Cc3c(Cl)cccc3Cl)c3ncnc2-3)cc1` [Methyl 4-({3-[(2,6-dichlorophenyl)methyl]-3-hydropurin-6-yl}amino)benzoate] gave an IC50 of 1000 to 20000 nM.
On to `Cc1cccc(C)c1Cn1cnc(NCc2ccco2)c2ncnc1-2` [3-(2,6-Dimethylbenzyl)-n-(furan-2-ylmethyl)-3h-purin-6-amine], for which the IC50 was in the range of 1000 to 20000 nM.
The figure for `Nc1ncn(Cc2c(Cl)cccc2[N+](=O)[O-])c2ncnc1-2` [3-(2-Chloro-6-nitrobenzyl)-3H-purin-6-amine] is at most 1000 nM; for `Nc1ncn(Cc2c(Cl)cccc2Cl)c2nc(-c3cnccc3Cl)nc1-2` [3-[(2,6-Dichlorophenyl)methyl]-8-(4-chloro(3-pyridyl))-3-hydropurine-6-ylamine] it is at most 1000 nM.
With `Cc1ccc(CNc2ncn(Cc3c(Cl)cccc3Cl)c3ncnc2-3)o1` [{3-[(2,6-dichlorophenyl)methyl](3-hydropurin-6-yl)}[(5-methyl(2-furyl))methyl]amine], the IC50 was 1000 to 20000 nM.
The value for `Oc1ccccc1Nc1ncn(Cc2c(Cl)cccc2Cl)c2ncnc1-2` [2-({3-[(2,6-Dichlorophenyl)methyl]-3-hydropurin-6-yl}amino)phenol] was 1000 to 20000 nM; that for `O=C(O)c1cccc(Nc2ncn(Cc3c(Cl)cccc3Cl)c3ncnc2-3)c1` [3-({3-[(2,6-Dichlorophenyl)methyl]-3-hydropurin-6-yl}amino)benzoic acid] was 1000 to 20000 nM.
For the compound `Nc1ncn(Cc2ccc(Cl)cc2Cl)c2ncnc1-2` [3-(2,4-Dichloro-benzyl)-3H-purin-6-ylamine], the 50% inhibitory concentration (IC50) fell in the range of 1000 to 20000 nM.
The figure for `Nc1ncn(Cc2c(Cl)cccc2Cl)c2nc(-c3ccccc3)nc1-2` [3-[(2,6-Dichlorophenyl)methyl]-8-phenyl-3-hydropurine-6-ylamine] is at most 1000 nM; for `N#Cc1cccc(Cl)c1Cn1cnc(N)c2ncnc1-2` [2-((6-amino-3H-purin-3-yl)methyl)-3-chlorobenzonitrile] it is at most 1000 nM; for `COc1ccc(-c2nc3c(N)ncn(Cc4c(Cl)cccc4Cl)c-3n2)cc1` [3-[(2,6-Dichlorophenyl)methyl]-8-(4-methoxyphenyl)-3-hydropurine-6-ylamine] it is at most 1000 nM.
The value for `CC(=O)c1ccc(Nc2ncn(Cc3c(Cl)cccc3Cl)c3ncnc2-3)cc1` [1-Acetyl-4-({3-[(2,6-dichlorophenyl)methyl](3-hydropurin-6-yl)}amino)benzene] was 1000 to 20000 nM; that for `Fc1ccccc1Nc1ncn(Cc2c(Cl)cccc2Cl)c2ncnc1-2` [{3-[(2,6-Dichlorophenyl)methyl](3-hydropurin-6-yl)}(2-fluorophenyl)amine] was 1000 to 20000 nM; that for `Nc1ncn(Cc2c(Cl)cccc2Cl)c2nc(-c3cccnc3)nc1-2` [3-[(2,6-Dichlorophenyl)methyl]-8-(3-pyridyl)-3-hydropurine-6-ylamine] was at most 1000 nM.
The figure for `Nc1ncn(Cc2cccc(Cl)c2)c2ncnc1-2` [3-(3-chlorobenzyl)-3H-purin-6-amine] is at least 20000 nM; for `Nc1ncn(Cc2c(Cl)cccc2Cl)c2nc(-c3ccc(F)c(F)c3)nc1-2` [3-[(2,6-dichlorophenyl)methyl]-8-(3,4-difluorophenyl)-3-hydropurine-6-ylamine] it is at most 1000 nM.
Consider `Clc1cccc(Cl)c1Cn1cnc(Nc2ccccc2N2CCOCC2)c2ncnc1-2` [{3-[(2,6-Dichlorophenyl)methyl](3-hydropurin-6-yl)}(2-morpholin-4-ylphenyl)amine], for which the IC50 was at least 20000 nM.
In turn, `Nc1ncn(Cc2c(F)cccc2Cl)c2ncnc1-2` [3-(2-Chloro-6-fluoro-benzyl)-3H-purin-6-ylamine] registered an IC50 of at most 1000 nM.
The value for `Cc1ccc(-c2nc3c(N)ncn(Cc4c(Cl)cccc4Cl)c-3n2)cc1` [3-[(2,6-Dichlorophenyl)methyl]-8-(4-methylphenyl)-3-hydropurine-6-ylamine] was at most 1000 nM; that for `Nc1ncn(Cc2c(Cl)cccc2Cl)c2nc(C3=CCOCC3)nc1-2` [3-(2,6-dichlorobenzyl)-8-(3,6-dihydro-2H-pyran-4-yl)-3H-purin-6-amine] was at most 1000 nM.
The value for `Nc1ncn(Cc2c(Cl)cccc2Cl)c2nc(Cc3ccccc3)nc1-2` [3-[(2,6-Dichlorophenyl)methyl]-8-benzyl-3-hydropurine-6-ylamine] was at most 1000 nM; that for `Nc1ncn(Cc2ccncc2)c2ncnc1-2` [3-Pyridin-4-ylmethyl-3H-purin-6-ylamine] was 1000 to 20000 nM.

Values taken from patent US20200338084A1, “INHIBITORS OF LOW MOLECULAR WEIGHT PROTEIN TYROSINE PHOSPHATASE (LMPTP) AND USES THEREOF” (Sanford Burnham Prebys Medical Discovery Institute, priority 2018, published 2020).
